# Results: ChEMBL document CHEMBL3885861, “Open TG-GATES”
# Organism: Rattus norvegicus
# Experiment: Open TG-GATES - Regimen: Single
# Assay type: toxicity, organism-based, Sprague-Dawley
# Design: regimen Single, gender Male, age 6 weeks
# Conditions: in vivo, po, 30 mg/kg, route gavage, dose level Low; for APTT / Bas / Eos / Fbg / Hb / Ht / Lym / MCH / MCHC / MCV / Mono / Neu / PT / Plat / RBC / Ret / WBC: tissue Blood; for ALP / ALT / AST / BUN / CRE / DBIL / GLC / IP / K / Na / PL / RALB / TBIL / TC / TG / TP / gamma-GTP: tissue Plasma
structure (smiles),measurement,setting,value
NS(=O)(=O)c1cc(C(=O)O)c(NCc2ccco2)cc1Cl [FUROSEMIDE],TERMINAL_BW,3 h,201.3 g
same,APTT,3 h,18.1 s
same,Bas,3 h,0%
same,Eos,3 h,1%
same,Fbg,3 h,278.8 mg/dL
same,Hb,3 h,14 g/dL
same,Ht,3 h,41.6%
same,Lym,3 h,74.2%
same,MCH,3 h,21.2 pg
same,MCHC,3 h,33.6%
same,MCV,3 h,63.2 fL
same,Mono,3 h,4.4%
same,Neu,3 h,19.6%
same,PT,3 h,15.4 s
same,Plat,3 h,117.4 x10_4/uL
same,RBC,3 h,658.6 x10_4/ul
same,Ret,3 h,7.9%
same,WBC,3 h,68.2 x10_2/uL
same,ALP,3 h,1468.8 IU/L
same,ALT,3 h,46 IU/L
same,AST,3 h,77 IU/L
same,BUN,3 h,15.4 mg/dL
same,CRE,3 h,0.2 mg/dL
same,DBIL,3 h,0.01 mg/dL
same,GLC,3 h,179.2 mg/dL
same,IP,3 h,10.5 mg/dL
same,K,3 h,3.7 meq/L
same,Na,3 h,141.6 meq/L
same,PL,3 h,149.8 mg/dL
same,RALB,3 h,2.8 g/dL
same,TBIL,3 h,0.058 mg/dL
same,TC,3 h,79.4 mg/dL
same,TG,3 h,63.6 mg/dL
same,TP,3 h,5.9 g/dL
same,gamma-GTP,3 h,1 IU/L
same,TERMINAL_BW,6 h,199.3 g
same,APTT,6 h,17.5 s
same,Bas,6 h,0%
same,Eos,6 h,1%
same,Fbg,6 h,324.6 mg/dL
same,Hb,6 h,14.1 g/dL
same,Ht,6 h,41.9%
same,Lym,6 h,74.4%
same,MCH,6 h,21.6 pg
same,MCHC,6 h,33.7%
same,MCV,6 h,64 fL
same,Mono,6 h,3.8%
same,Neu,6 h,20%
same,PT,6 h,15.2 s
same,Plat,6 h,124.8 x10_4/uL
same,RBC,6 h,655.4 x10_4/ul
same,Ret,6 h,7.9%
same,WBC,6 h,92.3 x10_2/uL
same,ALP,6 h,1320.8 IU/L
same,ALT,6 h,45.6 IU/L
same,AST,6 h,74.6 IU/L
same,BUN,6 h,17.8 mg/dL
same,CRE,6 h,0.2 mg/dL
same,DBIL,6 h,0.016 mg/dL
same,GLC,6 h,181.2 mg/dL
same,IP,6 h,10.4 mg/dL
same,K,6 h,3.6 meq/L
same,Na,6 h,141 meq/L
same,PL,6 h,156.2 mg/dL
same,RALB,6 h,2.9 g/dL
same,TBIL,6 h,0.074 mg/dL
same,TC,6 h,88.2 mg/dL
same,TG,6 h,44.2 mg/dL
same,TP,6 h,6.1 g/dL
same,gamma-GTP,6 h,1 IU/L
same,TERMINAL_BW,9 h,199.5 g
same,APTT,9 h,17.3 s
same,Bas,9 h,0%
same,Eos,9 h,1%
same,Fbg,9 h,310.2 mg/dL
same,Hb,9 h,14 g/dL
same,Ht,9 h,41.4%
same,Lym,9 h,73%
same,MCH,9 h,21.5 pg
same,MCHC,9 h,33.8%
same,MCV,9 h,63.8 fL
same,Mono,9 h,3.2%
same,Neu,9 h,22%
same,PT,9 h,15.4 s
same,Plat,9 h,118.1 x10_4/uL
same,RBC,9 h,649.2 x10_4/ul
same,Ret,9 h,8.1%
same,WBC,9 h,89.5 x10_2/uL
same,ALP,9 h,1152.2 IU/L
same,ALT,9 h,38.6 IU/L
same,AST,9 h,68.6 IU/L
same,BUN,9 h,16.4 mg/dL
same,CRE,9 h,0.2 mg/dL
same,DBIL,9 h,0.01 mg/dL
same,GLC,9 h,181.4 mg/dL
same,IP,9 h,10.7 mg/dL
same,K,9 h,3.7 meq/L
same,Na,9 h,143 meq/L
same,PL,9 h,147.4 mg/dL
same,RALB,9 h,2.7 g/dL
same,TBIL,9 h,0.072 mg/dL
same,TC,9 h,81 mg/dL
same,TG,9 h,38 mg/dL
same,TP,9 h,5.8 g/dL
same,gamma-GTP,9 h,0.8 IU/L
same,TERMINAL_BW,24 h,224.4 g
same,APTT,24 h,17.3 s
same,Bas,24 h,0.2%
same,Eos,24 h,1%
same,Fbg,24 h,267 mg/dL
same,Hb,24 h,13.3 g/dL
same,Ht,24 h,39.7%
same,Lym,24 h,78.6%
same,MCH,24 h,21.8 pg
same,MCHC,24 h,33.5%
same,MCV,24 h,65.1 fL
same,Mono,24 h,2.8%
same,Neu,24 h,16.4%
same,PT,24 h,15.8 s
same,Plat,24 h,118.7 x10_4/uL
same,RBC,24 h,610 x10_4/ul
same,Ret,24 h,7.4%
same,WBC,24 h,96 x10_2/uL
same,ALP,24 h,1538.8 IU/L
same,ALT,24 h,44.6 IU/L
same,AST,24 h,73.6 IU/L
same,BUN,24 h,16 mg/dL
same,CRE,24 h,0.2 mg/dL
same,DBIL,24 h,0.01 mg/dL
same,GLC,24 h,183.4 mg/dL
same,IP,24 h,7.7 mg/dL
same,K,24 h,4 meq/L
same,Na,24 h,142.6 meq/L
same,PL,24 h,147.8 mg/dL
same,RALB,24 h,2.6 g/dL
same,TBIL,24 h,0.052 mg/dL
same,TC,24 h,81.8 mg/dL
same,TG,24 h,60.8 mg/dL
same,TP,24 h,5.6 g/dL
same,gamma-GTP,24 h,0.8 IU/L
